# In paper PMC3823594, “Conformational Changes Underlying Pore Dilation in the Cytoplasmic Domain of Mammalian Inward Rectifier K^+ Channels” (PLoS ONE, 2013):
# Tested on: Kir3.2 E236R
# Experiment: Two-electrode voltage clamp, ACh-dependent (m2R-dependent) K+ current activation
# Type: cell-based, mouse
# Settings: Kir3.2 E236R with m2R in Xenopus oocytes; various concentrations of ACh; end of test pulse to −120 mV
# Description: The mouse Kir3.2d isoform was subjected to functional analyses. The amino acid numbers correspond to the longest mouse Kir3.2 isoform. Point mutations were introduced using the QuikChange site-directed mutagenesis kit (Stratagene, La Jolla, CA), and the presence of the mutations was confirmed by direct DNA sequencing. The care of Xenopus laevis was in accordance with the guideline of the Institute of Experimental Animal Sciences, Osaka University. The protocol was approved by the Animal Experiment Committee of Osaka University. The frogs were deeply anesthetized by immersing in 0.2% tricaine methanesulfonate for 20 min at 18°C. […] The currents were recorded in the absence or presence of various concentrations of acetylcholine (ACh). […] The data are expressed as mean values ± standard error of the mean. For the quantitative estimation of ACh-dependent current responses of the wild-type (WT) and mutant channels, the current amplitudes at the end of test pulses at each ACh concentration ([ACh]) were fitted using the following equation: […]
# Figure 6 Introduction of reverse charge at position 236 of Kir3.2. […] Typical current traces of the E236R mutant recorded in the presence of various concentrations of ACh are shown. […] The current amplitudes at the end of the test pulse were normalized to that recorded at -100 mV. […]
smiles,measurement,value
"CC(=O)OCC[N+](C)(C)C [ACh, acetylcholine]",Sensitivity of whole-cell K+ current to m2R-stimulation,insensitive
